# According to US20250064890A1, “PROTEIN COMPOSITIONS FOR THE TREATMENT OF INFLAMMATORY DISEASES” (Unichem Laboratories Limited, priority 2021, published 2025):
# System: NF-kB
# Test: Multiplex analysis, chemotherapy (5-FU), TR146 cell lysates
# Type: cell-based, human
# Protocol: Oral buccal mucosal cells (TR146) cells were incubated overnight at 37° C. in 5% CO2 incubator. […] The cells were then stimulated with 5-FU (10 mM) for another 24h for chemotherapy and with gamma radiation (3.5 kGy) using Cobalt 60 for radiotherapy. After 24 h, cell culture supernatants were collected from each well and stored at −20° C. till multiplex analysis. For NF-kB estimations, cell lysates were prepared. Levels of biomarkers were estimated using Magpix® multiplex machine. The cells treated with Amifostine (along with 5-FU or radiation) were considered as positive control (PC). Untreated cells (5-FU or radiation alone treated) were used as negative control (NC).
# The percent modulation in each sample was determined as follows:
# [{Concentration of biomarkers (pg/ml) in Control cells (5-FU or radiation alone treated)−Concentration of biomarkers (pg/ml) in SEQ ID NO: 2+5-FU or radiation treated cells)}/Concentration of biomarkers (pg/ml) in Control cells (5-FU or radiation alone treated)]*100
smiles,measurement,setting,value
"NCCCNCCSP(=O)(O)O [Amifostine, reference compound]",Percentage Inhibition NF-kB,1 μg/ml + 5-FU (10 mM),100%
same,Percentage Inhibition NF-kB,10 μg/ml + 5-FU (10 mM),48.2%
same,Percentage Inhibition NF-kB,50 μg/ml + 5-FU (10 mM),14.2%
